# Test results taken from article PMC10337138 (Acta Neuropathologica Communications, 2023).
# What was measured:
# AURKC/AURC = AURKC/AURC (Homo sapiens, UniProt Q9UQB9); conditions: 1 mM ATP; inhibitor
# Method: (§1) Kinase selectivity panel Kinome profiling was conducted by AssayQuant Technologies (Marlboro, MA) using Sox chromophore technology and Sox-based peptide substrates developed for human kinases in a 384-well format. Compounds were tested at 1 µM in the presence of 1 mM ATP.
# CAMKK2 = CAMKK2 (Homo sapiens, UniProt Q96RR4); conditions: 1 mM ATP; inhibitor
# Method: as §1
# CHAK1 = target: T1, CHAK1 (Homo sapiens, UniProt Q96QT4); conditions: 1 mM ATP; inhibitor
# T1 construct: gene TRPM7
# Method: as §1
# CHEK1/CHK1 = CHEK1/CHK1 (Homo sapiens, UniProt O14757); conditions: 1 mM ATP; inhibitor
# Method: as §1
# DRAK2 = target: T2, DRAK2 (Homo sapiens, UniProt O94768); conditions: 1 mM ATP; inhibitor
# T2 construct: gene STK17B
# Method: as §1
# EGFR = EGFR (Homo sapiens, UniProt P00533); conditions: 1 mM ATP; inhibitor
# Method: as §1
# EIF2AK1/HRI = EIF2AK1/HRI (Homo sapiens, UniProt Q9BQI3); conditions: 1 mM ATP; inhibitor
# Method: as §1
# EIF2AK3/PEK = EIF2AK3/PEK (Homo sapiens, UniProt Q9NZJ5); conditions: 1 mM ATP; inhibitor
# Method: as §1
# EIF2AK4/GCN2 = EIF2AK4/GCN2 (Homo sapiens, UniProt Q9P2K8); conditions: 1 mM ATP; inhibitor
# Method: as §1
# EPHA5 = EPHA5 (Homo sapiens, UniProt P54756); conditions: 1 mM ATP; inhibitor
# Method: as §1
# EPHA6 = EPHA6 (Homo sapiens, UniProt Q9UF33); conditions: 1 mM ATP; inhibitor
# Method: as §1
# EPHA8 = EPHA8 (Homo sapiens, UniProt P29322); conditions: 1 mM ATP; inhibitor
# Chain of EPHA8 (P29322 whole entry): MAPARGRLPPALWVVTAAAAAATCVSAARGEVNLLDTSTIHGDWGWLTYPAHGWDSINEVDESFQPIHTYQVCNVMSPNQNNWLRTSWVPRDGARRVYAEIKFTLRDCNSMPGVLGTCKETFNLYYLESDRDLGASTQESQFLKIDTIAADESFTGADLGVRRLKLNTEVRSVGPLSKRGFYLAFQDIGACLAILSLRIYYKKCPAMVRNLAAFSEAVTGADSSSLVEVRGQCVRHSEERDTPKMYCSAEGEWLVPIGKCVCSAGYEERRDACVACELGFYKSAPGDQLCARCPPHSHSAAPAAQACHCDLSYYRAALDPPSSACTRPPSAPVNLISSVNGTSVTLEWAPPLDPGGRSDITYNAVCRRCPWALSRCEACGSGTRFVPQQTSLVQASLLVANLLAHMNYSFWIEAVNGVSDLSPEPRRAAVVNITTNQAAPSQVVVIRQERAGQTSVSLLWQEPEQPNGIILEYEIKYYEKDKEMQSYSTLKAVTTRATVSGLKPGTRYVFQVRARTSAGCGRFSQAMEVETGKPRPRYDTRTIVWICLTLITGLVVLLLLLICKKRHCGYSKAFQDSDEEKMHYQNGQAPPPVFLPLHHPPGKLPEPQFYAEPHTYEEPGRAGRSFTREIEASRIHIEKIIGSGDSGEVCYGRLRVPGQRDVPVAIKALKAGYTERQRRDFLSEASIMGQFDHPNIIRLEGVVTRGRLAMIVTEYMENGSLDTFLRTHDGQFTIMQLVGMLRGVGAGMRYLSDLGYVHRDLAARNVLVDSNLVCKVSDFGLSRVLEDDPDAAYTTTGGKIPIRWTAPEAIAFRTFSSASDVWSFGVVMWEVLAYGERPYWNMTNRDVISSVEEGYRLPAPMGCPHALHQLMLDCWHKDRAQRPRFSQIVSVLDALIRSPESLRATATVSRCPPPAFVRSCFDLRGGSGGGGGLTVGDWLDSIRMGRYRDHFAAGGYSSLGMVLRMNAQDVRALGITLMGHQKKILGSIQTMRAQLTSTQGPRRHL
# Method: as §1
# GAK = GAK (Homo sapiens, UniProt O14976); conditions: 1 mM ATP; inhibitor
# Method: as §1
# HIPK4 = HIPK4 (Homo sapiens, UniProt Q8NE63); conditions: 1 mM ATP; inhibitor
# Method: as §1
# MAP3K13 = MAP3K13 (Homo sapiens, UniProt O43283); conditions: 1 mM ATP; inhibitor
# Method: as §1
# MAP3K9 = MAP3K9 (Homo sapiens, UniProt P80192); conditions: 1 mM ATP; inhibitor
# Method: as §1
# MAP4K5/KSH1 = MAP4K5/KSH1 (Homo sapiens, UniProt Q9Y4K4); conditions: 1 mM ATP; inhibitor
# Method: as §1
# MAPK1/ERK2 = MAPK1/ERK2 (Homo sapiens, UniProt P28482); conditions: 1 mM ATP; inhibitor
# Chain of MAPK1/ERK2 (P28482 whole entry): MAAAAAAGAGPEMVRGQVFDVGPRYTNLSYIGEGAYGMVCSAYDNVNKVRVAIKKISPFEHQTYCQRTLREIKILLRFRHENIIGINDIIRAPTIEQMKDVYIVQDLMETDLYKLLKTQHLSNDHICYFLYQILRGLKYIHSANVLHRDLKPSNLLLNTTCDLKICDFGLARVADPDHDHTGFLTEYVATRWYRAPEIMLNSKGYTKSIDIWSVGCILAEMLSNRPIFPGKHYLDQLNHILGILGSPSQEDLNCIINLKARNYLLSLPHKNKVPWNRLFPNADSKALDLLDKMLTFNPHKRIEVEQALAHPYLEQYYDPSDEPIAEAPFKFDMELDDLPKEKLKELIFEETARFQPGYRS
# Method: as §1
# MYO3B = MYO3B (Homo sapiens, UniProt Q8WXR4); conditions: 1 mM ATP; inhibitor
# Chain of MYO3B (Q8WXR4 whole entry): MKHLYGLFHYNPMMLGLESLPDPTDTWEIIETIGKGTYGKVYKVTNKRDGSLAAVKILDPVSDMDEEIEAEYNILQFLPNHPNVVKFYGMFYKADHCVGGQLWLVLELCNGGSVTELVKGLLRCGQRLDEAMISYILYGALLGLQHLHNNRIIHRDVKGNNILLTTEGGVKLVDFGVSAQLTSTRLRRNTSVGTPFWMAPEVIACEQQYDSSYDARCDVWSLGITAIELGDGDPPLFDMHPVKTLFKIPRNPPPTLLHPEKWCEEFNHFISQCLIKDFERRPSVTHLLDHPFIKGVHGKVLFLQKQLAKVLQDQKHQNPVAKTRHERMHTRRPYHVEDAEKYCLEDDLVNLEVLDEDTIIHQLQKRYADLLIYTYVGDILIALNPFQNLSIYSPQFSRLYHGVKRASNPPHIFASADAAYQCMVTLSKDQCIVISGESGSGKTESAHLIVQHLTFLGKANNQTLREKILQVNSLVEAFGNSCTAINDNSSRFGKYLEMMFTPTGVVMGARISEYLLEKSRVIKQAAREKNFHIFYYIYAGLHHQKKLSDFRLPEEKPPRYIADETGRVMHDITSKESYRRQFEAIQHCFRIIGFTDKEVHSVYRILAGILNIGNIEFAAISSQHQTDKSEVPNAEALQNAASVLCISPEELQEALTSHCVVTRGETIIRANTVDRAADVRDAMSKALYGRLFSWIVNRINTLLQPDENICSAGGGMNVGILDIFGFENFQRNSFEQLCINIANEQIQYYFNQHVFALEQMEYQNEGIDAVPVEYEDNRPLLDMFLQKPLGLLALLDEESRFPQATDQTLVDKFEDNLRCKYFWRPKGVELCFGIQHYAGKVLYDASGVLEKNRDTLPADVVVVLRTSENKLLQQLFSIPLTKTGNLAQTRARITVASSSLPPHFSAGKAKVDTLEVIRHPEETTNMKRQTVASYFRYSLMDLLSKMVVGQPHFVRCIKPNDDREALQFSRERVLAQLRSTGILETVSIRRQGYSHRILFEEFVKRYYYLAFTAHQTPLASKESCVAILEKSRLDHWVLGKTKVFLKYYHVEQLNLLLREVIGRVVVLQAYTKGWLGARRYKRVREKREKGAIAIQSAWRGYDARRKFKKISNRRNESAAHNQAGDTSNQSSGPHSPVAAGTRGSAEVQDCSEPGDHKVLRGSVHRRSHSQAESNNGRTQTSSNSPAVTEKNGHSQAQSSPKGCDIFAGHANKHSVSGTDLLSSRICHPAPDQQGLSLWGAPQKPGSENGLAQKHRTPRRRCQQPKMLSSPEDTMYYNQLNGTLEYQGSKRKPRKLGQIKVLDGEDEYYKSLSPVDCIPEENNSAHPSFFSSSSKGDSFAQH
# Method: as §1
# NEK6 = NEK6 (Homo sapiens, UniProt Q9HC98); conditions: 1 mM ATP; inhibitor
# Chain of NEK6 (Q9HC98 whole entry): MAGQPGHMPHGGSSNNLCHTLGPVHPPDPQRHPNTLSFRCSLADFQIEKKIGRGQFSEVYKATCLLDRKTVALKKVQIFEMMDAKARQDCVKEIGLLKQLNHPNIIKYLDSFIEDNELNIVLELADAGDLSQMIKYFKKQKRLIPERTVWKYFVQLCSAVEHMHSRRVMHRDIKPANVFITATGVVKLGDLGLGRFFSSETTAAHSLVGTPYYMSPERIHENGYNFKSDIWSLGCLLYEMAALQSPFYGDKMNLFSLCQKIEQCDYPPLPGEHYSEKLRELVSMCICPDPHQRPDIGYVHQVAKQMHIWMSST
# Method: as §1
# NEK7 = NEK7 (Homo sapiens, UniProt Q8TDX7); conditions: 1 mM ATP; inhibitor
# Method: as §1
# PRKCE/PKCE = PRKCE/PKCE (Homo sapiens, UniProt Q02156); conditions: 1 mM ATP; inhibitor
# Method: as §1
# PRKCG/PKCG = PRKCG/PKCG (Homo sapiens, UniProt P05129); conditions: 1 mM ATP; inhibitor
# Method: as §1
# PRKX = PRKX (Homo sapiens, UniProt P51817); conditions: 1 mM ATP; inhibitor
# Chain of PRKX (P51817 whole entry): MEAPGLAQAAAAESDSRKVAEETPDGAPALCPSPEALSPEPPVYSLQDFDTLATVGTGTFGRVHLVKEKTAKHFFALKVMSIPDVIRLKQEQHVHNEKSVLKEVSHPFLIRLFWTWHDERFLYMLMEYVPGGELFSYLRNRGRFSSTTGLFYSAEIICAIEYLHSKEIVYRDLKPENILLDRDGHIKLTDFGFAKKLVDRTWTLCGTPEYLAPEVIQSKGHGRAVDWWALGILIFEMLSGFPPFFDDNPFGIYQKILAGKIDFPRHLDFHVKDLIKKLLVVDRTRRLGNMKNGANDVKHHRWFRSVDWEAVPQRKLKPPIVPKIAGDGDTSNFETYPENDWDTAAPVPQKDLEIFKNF
# Method: as §1
# SGK2 = SGK2 (Homo sapiens, UniProt Q9HBY8); conditions: 1 mM ATP; inhibitor
# Method: as §1
# STK10/LOK = STK10/LOK (Homo sapiens, UniProt O94804); conditions: 1 mM ATP; inhibitor
# Method: as §1
# TBK1 = TBK1 (Homo sapiens, UniProt Q9UHD2); conditions: 1 mM ATP; inhibitor
# Chain of TBK1 (Q9UHD2 whole entry): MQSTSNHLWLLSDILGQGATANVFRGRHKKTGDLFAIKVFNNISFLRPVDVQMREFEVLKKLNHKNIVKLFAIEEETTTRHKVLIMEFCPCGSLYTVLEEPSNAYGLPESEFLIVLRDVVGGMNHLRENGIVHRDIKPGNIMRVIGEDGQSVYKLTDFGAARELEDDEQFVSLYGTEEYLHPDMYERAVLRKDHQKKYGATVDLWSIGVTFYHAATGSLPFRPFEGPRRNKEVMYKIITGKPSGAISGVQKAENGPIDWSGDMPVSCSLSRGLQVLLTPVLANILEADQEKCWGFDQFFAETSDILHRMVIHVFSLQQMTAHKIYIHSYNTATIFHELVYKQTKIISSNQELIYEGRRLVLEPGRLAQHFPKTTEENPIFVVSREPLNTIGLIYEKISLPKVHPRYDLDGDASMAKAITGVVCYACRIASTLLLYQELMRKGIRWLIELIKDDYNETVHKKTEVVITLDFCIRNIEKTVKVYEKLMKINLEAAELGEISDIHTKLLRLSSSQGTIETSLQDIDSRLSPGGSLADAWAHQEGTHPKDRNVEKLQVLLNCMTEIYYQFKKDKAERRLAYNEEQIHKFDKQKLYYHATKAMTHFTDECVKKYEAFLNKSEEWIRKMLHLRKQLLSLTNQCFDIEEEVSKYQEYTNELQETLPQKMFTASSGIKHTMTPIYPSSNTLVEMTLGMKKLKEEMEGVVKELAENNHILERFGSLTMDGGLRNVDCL
# Method: as §1
# TESK2 = TESK2 (Homo sapiens, UniProt Q96S53); conditions: 1 mM ATP; inhibitor
# Method: as §1
# DYRK1B = DYRK1B (Homo sapiens, UniProt Q9Y463); assay: biochemical; conditions: read-out: 1 µM GBD# (ibrutinib), % inhibition
# Chain of DYRK1B (Q9Y463 whole entry): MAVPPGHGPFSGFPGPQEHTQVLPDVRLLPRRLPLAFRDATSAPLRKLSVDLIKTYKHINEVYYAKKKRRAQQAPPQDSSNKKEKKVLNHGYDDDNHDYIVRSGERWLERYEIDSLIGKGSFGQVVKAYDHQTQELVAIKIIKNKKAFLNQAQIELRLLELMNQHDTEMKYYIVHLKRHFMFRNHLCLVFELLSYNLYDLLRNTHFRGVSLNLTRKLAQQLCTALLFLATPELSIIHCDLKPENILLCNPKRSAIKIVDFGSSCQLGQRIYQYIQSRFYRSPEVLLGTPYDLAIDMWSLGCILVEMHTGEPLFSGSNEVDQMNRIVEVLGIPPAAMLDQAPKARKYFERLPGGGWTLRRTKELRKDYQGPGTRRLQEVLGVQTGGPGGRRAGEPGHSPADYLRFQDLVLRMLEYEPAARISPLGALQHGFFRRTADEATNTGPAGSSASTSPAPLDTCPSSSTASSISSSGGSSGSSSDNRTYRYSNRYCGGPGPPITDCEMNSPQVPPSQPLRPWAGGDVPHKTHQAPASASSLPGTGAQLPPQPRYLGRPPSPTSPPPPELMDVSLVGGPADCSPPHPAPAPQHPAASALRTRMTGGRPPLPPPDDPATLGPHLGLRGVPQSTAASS
# LTK = LTK (Homo sapiens, UniProt P29376); assay: biochemical; conditions: read-out: 1 µM GBD# (ibrutinib), % inhibition
# STK33 = STK33 (Homo sapiens, UniProt Q9BYT3); assay: biochemical; conditions: read-out: 1 µM GBD# (ibrutinib), % inhibition
# TTBK1 = TTBK1 (Homo sapiens, UniProt Q5TCY1); assay: biochemical; conditions: read-out: 1 µM GBD# (ibrutinib), % inhibition
# Chain of AURKC/AURC (Q9UQB9 whole entry): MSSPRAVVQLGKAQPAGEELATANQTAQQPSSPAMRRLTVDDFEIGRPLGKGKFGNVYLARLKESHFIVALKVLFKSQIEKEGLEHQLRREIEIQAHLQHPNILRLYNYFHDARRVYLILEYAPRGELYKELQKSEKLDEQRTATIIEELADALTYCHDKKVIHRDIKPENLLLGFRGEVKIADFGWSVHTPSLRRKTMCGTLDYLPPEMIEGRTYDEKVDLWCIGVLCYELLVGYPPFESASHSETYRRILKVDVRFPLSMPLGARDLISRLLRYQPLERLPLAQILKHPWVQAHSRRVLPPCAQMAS
structure (smiles),measurement,setting,value
C=CC(=O)N1CCC[C@@H](n2nc(-c3ccc(Oc4ccccc4)cc3)c3c(N)ncnc32)C1 [Ibrutinib],"1 µM GBD00276 (ibrutinib), % inhibition",AURKC/AURC,2.291%
same,"1 µM GBD00276 (ibrutinib), % inhibition",CAMKK2,2.203%
same,"1 µM GBD00276 (ibrutinib), % inhibition",CHAK1,-7.703%
same,"1 µM GBD00276 (ibrutinib), % inhibition",CHEK1/CHK1,-3.114%
same,"1 µM GBD00276 (ibrutinib), % inhibition",DRAK2,1.899%
same,"1 µM GBD00276 (ibrutinib), % inhibition",EGFR,96.63%
same,"1 µM GBD00276 (ibrutinib), % inhibition",EIF2AK1/HRI,-3.537%
same,"1 µM GBD00276 (ibrutinib), % inhibition",EIF2AK3/PEK,-3.047%
same,"1 µM GBD00276 (ibrutinib), % inhibition",EIF2AK4/GCN2,-3.934%
same,"1 µM GBD00276 (ibrutinib), % inhibition",EPHA5,-3.884%
same,"1 µM GBD00276 (ibrutinib), % inhibition",EPHA6,17.71%
same,"1 µM GBD00276 (ibrutinib), % inhibition",EPHA8,15.21%
same,"1 µM GBD00276 (ibrutinib), % inhibition",GAK,-7.706%
same,"1 µM GBD00276 (ibrutinib), % inhibition",HIPK4,3.287%
same,"1 µM GBD00276 (ibrutinib), % inhibition",MAP3K13,-13.52%
same,"1 µM GBD00276 (ibrutinib), % inhibition",MAP3K9,-1.576%
same,"1 µM GBD00276 (ibrutinib), % inhibition",MAP4K5/KSH1,14.55%
same,"1 µM GBD00276 (ibrutinib), % inhibition",MAPK1/ERK2,-5.335%
same,"1 µM GBD00276 (ibrutinib), % inhibition",MYO3B,-1.464%
same,"1 µM GBD00276 (ibrutinib), % inhibition",NEK6,-7.047%
same,"1 µM GBD00276 (ibrutinib), % inhibition",NEK7,-0.8851%
same,"1 µM GBD00276 (ibrutinib), % inhibition",PRKCE/PKCE,-10.08%
same,"1 µM GBD00276 (ibrutinib), % inhibition",PRKCG/PKCG,-20.25%
same,"1 µM GBD00276 (ibrutinib), % inhibition",PRKX,11.47%
same,"1 µM GBD00276 (ibrutinib), % inhibition",SGK2,-4.773%
same,"1 µM GBD00276 (ibrutinib), % inhibition",STK10/LOK,-13.28%
same,"1 µM GBD00276 (ibrutinib), % inhibition",TBK1,-3.072%
same,"1 µM GBD00276 (ibrutinib), % inhibition",TESK2,8.621%
same,inhibition at 1 µM,DYRK1B,18%
same,inhibition at 1 µM,LTK,-5.01%
same,inhibition at 1 µM,STK33,3.6%
same,inhibition at 1 µM,TTBK1,8.89%
